Source: patent publication US20120088665A1, “FUNGICIDAL MIXTURES” (BASF SE, priority 2009, published 2012)
Like-named read-outs stand apart in the source and are kept apart here.

What was measured:
Type in all cases: cell-based
Botrytis cinerea = test: Activity against the gray mold pathogen Botrytis cinerea in the microtiter test (Botrci); conditions: for inhibition of growth at 0.016 ppm: conc 0.016 ppm; for inhibition of growth at […]: conc 0.25 ppm
Fusarium culmorum = test: Activity against Fusarium culmorum in the microtiter test (Fusacu); conditions: single active compound; for inhibition of growth at […]: 0.25 ppm
Septoria tritici = test: Activity against the Septoria leaf spot pathogen Septoria tritici in the microtiter test (Septtr); conditions: single active compound; for inhibition of growth at 0.063 ppm: conc 0.063 ppm; for inhibition of growth at 0.016 ppm: conc 0.016 ppm; for inhibition of growth at 0.004 ppm: conc 0.004 ppm
Pyricularia oryzae = test: microbe, parasite or virus in culture; conditions: for Observed activity: Pyrior, single active compound
Phytophthora infestans = test: microbe, parasite or virus in culture
[1] = Botrytis cinerea, 168 h, read-out: Observed activity
[2] = Botrytis cinerea, 168 h, conc 0.063 ppm, read-out: Observed activity
[3] = Fusarium culmorum, 168 h, read-out: Observed activity
[4] = Fusarium culmorum, 168 h, 4 ppm, read-out: Observed activity
[5] = Zymoseptoria tritici, 168 h, conc 0.25 ppm, read-out: Observed activity
[6] = Pyricularia oryzae, 168 h, read-out: Observed activity
[7] = Zymoseptoria tritici, 168 h, read-out: Observed activity
[8] = Phytophthora infestans, 168 h, read-out: Observed activity
[9] = Botrytis cinerea, 168 h, conc 1 ppm, read-out: Observed activity

**Q.** Which results are given for O=C(NCCc1ncc(C(F)(F)F)cc1Cl)c1ccccc1C(F)(F)F [fluopyram]?
**A.** inhibition of growth at 0.016 ppm (Botrytis cinerea; [1]): 0%; inhibition of growth at 0.063 ppm (Botrytis cinerea; [2]): 0%; inhibition of growth at […] (Fusarium culmorum; [3]): 0%

**Q.** For O=c1c2cc(F)ccc2nc(-n2cncn2)n1-c1ccc(Cl)cc1Cl [fluquinconazole], which inhibition of growth at 4 ppm (Fusarium culmorum; [4]) is on record?
**A.** Its inhibition of growth at 4 ppm is 0%.

**Q.** How did the inhibition of growth at 4 ppm (Botrytis cinerea; Botrytis cinerea, 168 h, conc 4 ppm, read-out: Observed activity) turn out when OC(Cn1cncn1)(c1ccc(F)cc1)c1ccccc1F (stereo not shown) [flutriafol] was run?
**A.** The inhibition of growth at 4 ppm was 14%.

**Q.** And the inhibition of growth at 16 ppm (Botrytis cinerea; Botrytis cinerea, 168 h, conc 16 ppm, read-out: Observed activity)?
**A.** Its inhibition of growth at 16 ppm is 42%.

**Q.** And the inhibition of growth at […] (Septoria tritici; [5])?
**A.** The inhibition of growth at […] was 3%.

**Q.** And the inhibition of growth at 16 ppm (Fusarium culmorum; Fusarium culmorum, 168 h, 16 ppm, read-out: Observed activity)?
**A.** The inhibition of growth at 16 ppm was 29%.

**Q.** CC(C)NC(=O)N1CC(=O)N(c2cc(Cl)cc(Cl)c2)C1=O [iprodione] was tested. Which inhibition of growth at 1 ppm (Pyricularia oryzae; [6]) did it give?
**A.** Its inhibition of growth at 1 ppm is 24%.

**Q.** What about the inhibition of growth at 0.063 ppm (Septoria tritici; [7]) of the same compound?
**A.** Its inhibition of growth at 0.063 ppm is 11%.

**Q.** And the inhibition of growth at 1 ppm (Fusarium culmorum; [3])?
**A.** Its inhibition of growth at 1 ppm is 3%.

**Q.** CO/N=C(/C(=O)OC)c1ccccc1COc1ccccc1C [kresoxim-methyl] was tested. Which inhibition of growth at 1 ppm (Phytophthora infestans; [8]) did it give?
**A.** Its inhibition of growth at 1 ppm is 47%.

**Q.** What about the inhibition of growth at […] (Botrytis cinerea; [1]) of the same compound?
**A.** Its inhibition of growth at […] is 3%.

**Q.** And the inhibition of growth at 1 ppm (Botrytis cinerea; [9])?
**A.** Its inhibition of growth at 1 ppm is 17%.

**Q.** How did the inhibition of growth at 1 ppm (Phytophthora infestans; [8]) turn out when COCC(=O)N(c1c(C)cccc1C)C(C)C(=O)OC (stereo not shown) [metalaxyl] was run?
**A.** The inhibition of growth at 1 ppm was 5%.

**Q.** What about the inhibition of growth at […] (Botrytis cinerea; [1]) of the same compound?
**A.** Its inhibition of growth at […] is 1%.

**Q.** What about the inhibition of growth at 1 ppm (Botrytis cinerea; [9]) of the same compound?
**A.** Its inhibition of growth at 1 ppm is 5%.

**Q.** And the inhibition of growth at 1 ppm (Pyricularia oryzae; [6])?
**A.** Its inhibition of growth at 1 ppm is 2%.

**Q.** What about the inhibition of growth at 0.016 ppm (Septoria tritici; [7]) of the same compound?
**A.** Its inhibition of growth at 0.016 ppm is 0%.

**Q.** And the inhibition of growth at […] (Septoria tritici; [5])?
**A.** Its inhibition of growth at […] is 0%.

**Q.** CC1(C)CCC(Cc2ccc(Cl)cc2)C1(O)Cn1cncn1 (stereo not shown) [metconazole] was tested. Which inhibition of growth at 0.063 ppm (Botrytis cinerea; [2]) did it give?
**A.** The inhibition of growth at 0.063 ppm was 31%.

**Q.** And the inhibition of growth at 0.004 ppm (Septoria tritici; [7])?
**A.** The inhibition of growth at 0.004 ppm was 0%.

**Q.** What about the inhibition of growth at 0.016 ppm (Septoria tritici; [7]) of the same compound?
**A.** Its inhibition of growth at 0.016 ppm is 23%.

**Q.** What about the inhibition of growth at 0.063 ppm (Fusarium culmorum; [3]) of the same compound?
**A.** The inhibition of growth at 0.063 ppm was 0%.

**Q.** And the inhibition of growth at […] (Fusarium culmorum; [3])?
**A.** The inhibition of growth at […] was 37%.

**Q.** Which inhibition of growth at 1 ppm (Botrytis cinerea; [9]) does the source give for COc1cc(C)c(C(=O)c2c(OC)ccc(Br)c2C)c(OC)c1OC [metrafenone] here?
**A.** The inhibition of growth at 1 ppm was 0%.

**Q.** What about the inhibition of growth at 1 ppm (Pyricularia oryzae; [6]) of the same compound?
**A.** The inhibition of growth at 1 ppm was 11%.

**Q.** How did the Observed activity (Botrytis cinerea; conc 0.063 ppm) turn out when CNC(=O)/C(=N/OC)c1ccccc1CO/N=C(C)/C(=N/OC)C(/C)=N/OC [orysastrobin] was run?
**A.** The Observed activity was 1%.

**Q.** With OC(Cc1ccccc1Cl)(Cn1nc[nH]c1=S)C1(Cl)CC1 (stereo not shown) [prothioconazole] as the compound, how does the inhibition of growth at 0.016 ppm (Botrytis cinerea; [1]) read?
**A.** The inhibition of growth at 0.016 ppm was 5%.

**Q.** What about the inhibition of growth at 0.063 ppm (Botrytis cinerea; [2]) of the same compound?
**A.** Its inhibition of growth at 0.063 ppm is 17%.

**Q.** And the inhibition of growth at 0.004 ppm (Septoria tritici; [7])?
**A.** Its inhibition of growth at 0.004 ppm is 0%.

**Q.** And the inhibition of growth at […] (Fusarium culmorum; [3])?
**A.** The inhibition of growth at […] was 0%.

**Q.** Which inhibition of growth at 0.016 ppm (Phytophthora infestans; [8]) does the source give for COC(=O)N(OC)c1ccccc1COc1ccn(-c2ccc(Cl)cc2)n1 [pyraclostrobin] here?
**A.** The inhibition of growth at 0.016 ppm was 13%.

**Q.** What about the inhibition of growth at 0.063 ppm (Phytophthora infestans; [8]) of the same compound?
**A.** Its inhibition of growth at 0.063 ppm is 26%.

**Q.** What about the inhibition of growth at 0.004 ppm (Pyricularia oryzae; [6]) of the same compound?
**A.** The inhibition of growth at 0.004 ppm was 25%.

**Q.** What about the inhibition of growth at 0.016 ppm (Pyricularia oryzae; [6]) of the same compound?
**A.** The inhibition of growth at 0.016 ppm was 54%.

**Q.** What about the inhibition of growth at […] (Septoria tritici; Zymoseptoria tritici, 168 h, conc 0.00025 ppm, read-out: Observed activity) of the same compound?
**A.** The inhibition of growth at […] was 5%.

**Q.** And the inhibition of growth at 0.004 ppm (Septoria tritici; [7])?
**A.** Its inhibition of growth at 0.004 ppm is 44%.

**Q.** And the inhibition of growth at 0.016 ppm (Septoria tritici; [7])?
**A.** Its inhibition of growth at 0.016 ppm is 75%.

**Q.** What about the inhibition of growth at 0.063 ppm (Fusarium culmorum; [3]) of the same compound?
**A.** Its inhibition of growth at 0.063 ppm is 0%.

**Q.** What does the source list for Cc1cc(C)nc(Nc2ccccc2)n1 [pyrimethanil]?
**A.** inhibition of growth at 0.063 ppm (Botrytis cinerea; [2]): 7%; inhibition of growth at 1 ppm (Septoria tritici; Zymoseptoria tritici, 168 h, conc 1 ppm, read-out: Observed activity): 0%; inhibition of growth at 4 ppm (Fusarium culmorum; [4]): 3%

**Q.** CC(C)(C)C(O)(CCc1ccc(Cl)cc1)Cn1cncn1 (stereo not shown) [tebuconazole] was tested. Which inhibition of growth at 0.063 ppm (Phytophthora infestans; [8]) did it give?
**A.** The inhibition of growth at 0.063 ppm was 3%.

**Q.** What about the inhibition of growth at 0.004 ppm (Pyricularia oryzae; [6]) of the same compound?
**A.** The inhibition of growth at 0.004 ppm was 4%.

**Q.** Which results are given for COC(=O)NC(=S)Nc1ccccc1NC(=S)NC(=O)OC [thiophanate-methyl, thiophanate methyl]?
**A.** inhibition of growth at 1 ppm (Phytophthora infestans; [8]): 7%; inhibition of growth at 1 ppm (Pyricularia oryzae; [6]): 4%

**Q.** With CC1(C)CCC(=Cc2ccc(Cl)cc2)C1(O)Cn1cncn1 (stereo not shown) [triticonazole] as the compound, how does the inhibition of growth at […] (Botrytis cinerea; [1]) read?
**A.** The inhibition of growth at […] was 29%.

**Q.** And the inhibition of growth at 0.063 ppm (Septoria tritici; [7])?
**A.** The inhibition of growth at 0.063 ppm was 13%.

**Q.** And the inhibition of growth at 1 ppm (Fusarium culmorum; [3])?
**A.** Its inhibition of growth at 1 ppm is 17%.

**Q.** What does the source list for mancozeb?
**A.** Observed activity (Phytophthora infestans; conc 1 ppm): 23%; Observed activity (Botrytis cinerea; conc 1 ppm): 8%; Observed activity (Pyricularia oryzae; conc 4 ppm): 67; Observed activity (Septoria tritici; conc 4 ppm): 23; Observed activity (Fusarium culmorum; 4 ppm): 0%

**Q.** How did the Observed activity (Pyricularia oryzae; conc 1 ppm) turn out when metiram was run?
**A.** The Observed activity was 6.

**Q.** And the Observed activity (Pyricularia oryzae; conc 16 ppm)?
**A.** The Observed activity was 36.

**Q.** What about the Observed activity (Septoria tritici; conc 1 ppm) of the same compound?
**A.** Its Observed activity is 17.
